Laboratory results: ChEMBL document CHEMBL1201862, “PubChem BioAssay data set” (2004)
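1) Cells in 96-well plates. 2) Compound, 48 h, 5 concentrations. 3) Linear interpolation between surrounding doses. 4) Unreached endpoint = highest concentration. GI50 = concentration required for 50% inhibition of growth.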 Active and inactive are the calls of the source. No stated cut-off is given here; in the data, active = GI50 up to about 1.1 µM and inactive = higher.

Columns and labels:
Assay in all cases: NCI tumour cell line growth inhibition, 48 h
[1] = test system: NCI/ADR-RES
[2] = test system: COLO 205
[3] = test system: HOP-92
[4] = test system: SN12C
[5] = test system: NCI-H460
[6] = test system: A549
[7] = test system: SF-268
[8] = test system: A498
[9] = test system: NCI-H23
[10] = test system: CAKI-1
[11] = test system: M14
[12] = test system: IGROV-1
[13] = test system: LOX IMVI
[14] = test system: TK-10
[15] = test system: SF-295
[16] = test system: SK-MEL-2
[17] = test system: U-251
[18] = test system: ACHN
[19] = test system: RPMI-8226
[20] = test system: UACC-62

Measured: GI50

COc1cccc(C(=O)N[C@@H]2[C@H](O)[C@@H](CO)O[C@H]2n2cnc3c(N)ncnc32)c1
inactive: [1] > 100 µM | [2] > 100 µM | [3] > 100 µM | [4] > 100 µM | [5] > 100 µM | [6] > 100 µM | [7] > 100 µM | [8] > 100 µM | [9] > 100 µM | [10] > 100 µM | [11] > 100 µM | [12] > 100 µM | [13] > 100 µM | [14] > 100 µM | [15] > 100 µM | [16] > 100 µM | [17] > 100 µM | [18] > 100 µM | [19] > 100 µM | [20] > 100 µM

CSC1=C(C)C(/C=N/Nc2ccc([N+](=O)[O-])cc2)=C(C)N(c2ccccc2)S1(=O)=O
inactive: [1] 6.49 µM | [2] 48.2 µM | [3] > 100 µM | [4] > 100 µM | [5] 16.6 µM | [6] 36.3 µM | [7] > 100 µM | [8] > 100 µM | [9] 5.93 µM | [10] > 100 µM | [11] 38.6 µM | [12] 28.2 µM | [13] 19.6 µM | [14] > 100 µM | [15] 6.17 µM | [16] > 100 µM | [17] > 100 µM | [18] 44.9 µM | [19] 5.07 µM | [20] 74.1 µM
